Series [1] concerns cartilage tissue (articular cartilage, distal end of a femur). Put plainly: Immersion of a distal end of a femur of a normal mouse in a cartilage tissue visualization reagent solution, ex vivo fluorescence microscopy. The following applies: room temperature, 1 hour, GFP filter; for staining of cartilage (fluorescence signal, FIG. 2): 0.1 mM solution in saline; for staining of cartilage (fluorescence signal, FIG. 1): 0.1 mM solution in saline containing 25% ethanol. On the procedure:
Two normal C57B6/J strain mouse (8 week old, female) were prepared. The animals were euthanized by ether deep anesthesia and a distal end of a femur was excised. The sample was immersed in 100 μL of a 0.1 mM lysine oligomer derivative solution at room temperature for 1 hour. After 1 hour, the sample was washed twice with buffered saline. This was embedded in 4% CMC compound, frozen in hexane/liquid nitrogen, and cut into thin slices with a thickness of 7 μm using a tungsten carbide blade TC-65 (Leica) for a hard tissue slice and Cryofilm (Leica) in a cryostat without decalcification. The slice was thawed at room temperature for 10 sec, immersed in 100% ethanol for about 30 sec, stored in 4% paraformaldehyde (PFA) for a while, washed with tap water, and then subjected to fluorescence microscopy. An optical filer was a GFP filter. A lysine peptide was labeled with a fluorescence agent NBD, so that its signal was detected.
Here, a solvent of the solution of a lysine oligomer derivative was saline containing 25% ethanol. FIG. 1 is an enlarged image of an articular cartilage area in a sagittal plane of a knee joint in a distal end of a femur. The broken line indicates a tide-mark which is a boundary plane between a cartilage and a calcified cartilage layer.
Here, a solvent of the solution of a lysine oligomer derivative was saline. FIG. 2 is an enlarged image of an articular cartilage area in a sagittal plane of a knee joint in a distal end of a femur. […] For any of compounds 26 to 29, staining of a cartilage tissue was observed. However, staining of compound 26 containing only one lysine unit was slight. […] The white (green in a color photo) regions in the cartilage layer correspond to a part stained by a compound. Some of the circular regions (blue in a color photo) correspond to nuclear stain parts by Hoechst, which were also observed in the calcified layer.

On to `NCCCC[C@H](N)C(=O)NCCCC[C@H](N)C(=O)NCCCC[C@H](N)C(=O)NCCCC[C@H](N)C(=O)NCCNc1ccc([N+](=O)[O-])c2nonc12` [Compound 28], for which the “staining of cartilage (fluorescence signal, FIG. 2)” value in series [1] is “further strongly stained”.
`NCCCC[C@H](N)C(=O)NCCNc1ccc([N+](=O)[O-])c2nonc12` [Compound 26] displayed a melting point of 151.4 to 153.9 °C. In addition, the “staining of cartilage (fluorescence signal, FIG. 2)” value in series [1] was “slight”.
With `NCCCC[C@H](N)C(=O)NCCCC[C@H](N)C(=O)NCCCC[C@H](N)C(=O)NCCNc1ccc([N+](=O)[O-])c2nonc12` [Compound 27], the melting point was 183.3 to 184.7 °C. Further, in series [1], the “staining of cartilage (fluorescence signal, FIG. 1)” value is recorded as “Staining was observed in the cartilage tissue” and the “staining of cartilage (fluorescence signal, FIG. 2)” value was “adequately stained”.
Consider `NCCNc1c(I)cc(C(=O)NCCCC[C@H](NC(=O)c2cc(I)c(NCCN)c(I)c2)C(=O)NCCCC[C@H](NC(=O)c2cc(I)c(NCCN)c(I)c2)C(=O)NCCCC[C@H](NC(=O)c2cc(I)c(NCCN)c(I)c2)C(=O)NCCNc2ccc([N+](=O)[O-])c3nonc23)cc1I` [Compound 43], for which the melting point was 192.9 to 195.7 °C. In series [1], the “staining of cartilage (fluorescence signal, FIG. 1)” value is given as “staining was confined to the surface tissue”.
The compound `N=C(N)NCCNc1c(I)cc(C(=O)NCCCC[C@H](NC(=O)c2cc(I)c(NCCNC(=N)N)c(I)c2)C(=O)NCCCC[C@H](NC(=O)c2cc(I)c(NCCNC(=N)N)c(I)c2)C(=O)NCCCC[C@H](NC(=O)c2cc(I)c(NCCNC(=N)N)c(I)c2)C(=O)NCCNc2ccc([N+](=O)[O-])c3nonc23)cc1I` [Compound 42] came in with a melting point of 189.4 to 191.5 °C. The “staining of cartilage (fluorescence signal, FIG. 1)” value in series [1] was “Staining was observed in the cartilage tissue”.
As for `NCCCC[C@H](N)C(=O)NCCCC[C@H](N)C(=O)NCCCC[C@H](N)C(=O)NCCCC[C@H](N)C(=O)NCCCC[C@H](N)C(=O)NCCNc1ccc([N+](=O)[O-])c2nonc12` [Compound 29], the “staining of cartilage (fluorescence signal, FIG. 2)” value in series [1] was “further strongly stained”.

For orientation: melting point means the temperature, or range, at which the solid turns liquid.

The record behind these values is US20150080551A1, “LYSINE OLIGOMER DERIVATIVE AND CARTILAGE TISSUE MARKER MADE THEREOF” (NATIONAL UNIVERSITY CORPORATION OKAYAMA UNIVERSITY, priority 2012, published 2015).
